In patent EP3960174B1 (priority 2020, dated 2022) one finds IC50 data, which are given here for three molecules.

T1 sequence (P22303 32-614): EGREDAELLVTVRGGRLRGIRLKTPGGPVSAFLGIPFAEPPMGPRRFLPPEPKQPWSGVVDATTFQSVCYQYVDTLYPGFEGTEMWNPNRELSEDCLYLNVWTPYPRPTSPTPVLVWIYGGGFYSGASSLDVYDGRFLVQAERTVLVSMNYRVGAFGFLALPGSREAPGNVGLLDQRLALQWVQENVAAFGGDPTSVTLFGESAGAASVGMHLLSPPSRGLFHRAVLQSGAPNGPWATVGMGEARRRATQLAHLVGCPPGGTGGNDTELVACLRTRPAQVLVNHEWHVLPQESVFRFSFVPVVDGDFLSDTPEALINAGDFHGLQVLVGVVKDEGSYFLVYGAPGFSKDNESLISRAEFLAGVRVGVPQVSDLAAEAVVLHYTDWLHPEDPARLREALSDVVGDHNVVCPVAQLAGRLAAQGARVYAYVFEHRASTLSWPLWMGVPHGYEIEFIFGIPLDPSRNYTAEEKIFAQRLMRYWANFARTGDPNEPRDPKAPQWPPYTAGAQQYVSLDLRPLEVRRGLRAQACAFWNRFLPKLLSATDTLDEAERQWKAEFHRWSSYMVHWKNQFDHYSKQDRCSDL

This test concerns the target T1, AChE (Homo sapiens, UniProt P22303).
T1 construct: purchased Sigma Aldrich, Taufkirchen, D
The test can be described thus: biochemical.
As for `CC1N=C(CCCCCCCCCCc2cc(O)ccc2OC2OC(CO)C(O)C(O)C2O)CC1O` (stereo not drawn) [compound 1, tiliine A], the midpoint of inhibition, the IC50, lay at 231 µM. For `CC1NC(CCCCCCCCCc2cc(O)ccc2OC2OC(CO)C(O)C(O)C2O)CCC1O` (stereo not drawn) [compound 2, tiliamine A] the value was 172 µM; for `CC(=O)OC1CCC(CCCCCCCCCc2cc(O)ccc2O[C@@H]2O[C@H](CO)[C@@H](O)[C@H](O)[C@H]2O)NC1C` (stereo partly drawn) [compound 3, acetyl-tiliamine A], 50% inhibition level was not achieved.

For orientation: IC50 means the concentration that inhibits the measured activity by half. Read a low IC50 as greater potency.
